{"source": "patent US20180267021A1", "about": "“METHODS AND DEVICES FOR ASSESSING CELL PROPERTIES UNDER CONTROLLED GAS ENVIRONMENTS” (Carnegie Mellon University, priority 2014, published 2018)", "key": {"sickle RBCs [1]": {"system": "sickle RBCs", "experiment": "Kinetics of cell sickling of density-fractionated sickle RBC populations, on-HU vs off-HU", "type": "cell-based, human", "from_the_text": "In order to quantify the effects of cell density on the kinetics of cell sickling and unsickling, we categorized sickle RBCs into four populations with average cell densities of 1.086±0.005 g/ml (Density 1), 1.095±0.005 g/ml (Density 2), 1.105±0.005 g/ml (Density 3), and >1.111 g/ml (Density 4) for 20 SCD samples from 6 off-HU patients and 14 on-HU patients. The majority of sickle RBCs fell within Density 2 and Density 3 (FIG. 8A). We noticed a significant difference in sickling growth curve among different density populations of individual blood samples under both short-term and long-term DeOxy states (FIGS. 8B and C). Results of delay time of cell sickling and sickled fraction were examined along with cell density and the patient's HU status. Delay time of cell sickling decreased with cell density (FIG. 5A), which can be rationalized by the hydration state of the cells (39, 40).\n(§1) For the Aes-103 testing, blood samples from 3 on-HU and 3 off-HU patients were incubated with Aes-103 at different concentrations (0.5, 1, 2, and 5 mM) for one hour at 37° C. before the in vitro sickling test. […] The fractionation gradient was built up with four layers of 2.5 ml Optiprep-DPBS medium of densities of 1.081, 1.091, 1.100 and 1.111 g/ml, respectively. 1 ml blood sample was washed twice with Phosphate Buffered Saline (PBS) at 2000 rpm for 5 minutes at 21° C. and diluted into 70-80% hematocrit. […] The four fractions, Density 1 through Density 4 have mean densities of 1.086±0.005 g/ml, 1.095±0.005 g/ml, 1.105±0.005 g/ml, and >1.111 g/ml, respectively. Fractionated sickle RBCs were then suspended with RPMI-1640 containing 1% w/v Bovine Serum Albumin (BSA) (Sigma-Aldrich, St Louis, Mo.) and stored at 4° C. until shortly before use to avoid metabolic depletion.\n(§2) As Ru(dpp)3C12 is water insoluble, it was dissolved in Acetone-RPMI (volume ratio of 1:2) at 0.8 mg/ml and injected into the cell channel. […] Short-term and long-term hypoxia conditions held the durations of DeOxy state (O2 concentration<5%) about 25 s and 220 s, respectively."}, "sickle RBCs [2]": {"system": "sickle RBCs", "experiment": "Kinetics of cell sickling and unsickling under transient hypoxia, patient samples on-HU vs off-HU", "type": "cell-based, human", "procedure": "(§3) Cell sickling was measured using a double-layer device with a cell channel (5 μm high), a gas channel (100 μm high) and an in-between PDMS film 150 μm in thickness (FIG. 1A). The O2 concentration was controlled by exchanging gas flow in the channel through the PDMS membrane that is gas-permeable (33). […] Sickle RBCs typically form spiky edges and dark coarse texture due to intracellular HbS polymerization, the visual identification of which was enhanced by a band-pass filter (FIG. 1B). Thus the sickled cells were defined as those obviously distorted from their original shape and texture under Oxy state (O2 concentration 20%) to the DeOxy state (O2 concentration <5%). […] The delay time of cell unsickling was defined as the time elapsed between the initiation of reoxygenation (ReOxy) and the point when the RBC fully recovered its pre-sickle morphology in a visibly identifiable manner.\nKinetics of individual cell sickling and unsickling under transient hypoxia conditions was quantified by the delay time and the maximum sickled fraction on 25 SCD patient samples: 7 patients without HU therapy (off-HU) and 18 patients with HU therapy (on-HU) (see patient's HU status in Materials and Methods Text). Short-term and a long-term hypoxia conditions were created to simulate normal and retarded transit scenarios in microvasculature (FIGS. 2A-B). Representative cell sickling profiles upon changes in O2 concentration are shown (FIG. 2C). Compared to the relatively long sickling process (>100 s for sickled fraction rising from zero to a saturated, maximum level), the unsickling process after ReOxy was much faster (<20 s for sickled fraction reducing from the saturated level to zero), disregarding the small discrepancy in the DeOxy and ReOxy rates (<20 s). This observation applied to all patient sample.\nas §1"}, "sickle RBCs [3]": {"system": "sickle RBCs", "experiment": "Individual sickle RBC rheology through micro-gates under transient hypoxia, on-HU vs off-HU"}, "sickle RBCs [4]": {"system": "sickle RBCs", "experiment": "Microfluidic hypoxia assay: anti-sickling effect of Aes-103 on sickle RBCs incubated in vitro", "type": "cell-based, human", "procedure": "as §3, §1, §2"}}, "note": "Entries after “also recorded” stand apart in the source; their conditions may differ.", "data": [{"molecule": "NC(=O)NO", "note": "[HU, hydroxyurea]", "values": [{"measurement": "delay time for unsickling, on-HU vs off-HU", "setting": "sickle RBCs [1]; Densities 1 through 3, long-term DeOxy", "value": "did not vary significantly"}, {"measurement": "delay time of cell sickling with HU therapy, Densities 3 and 4", "setting": "sickle RBCs [1]; Densities 3 and 4, p=0.01 and p=0.06", "value": "marked extension"}, {"measurement": "mean delay time of cell sickling, on-HU vs off-HU cases", "setting": "sickle RBCs [1]; density-fractionated populations, short-term DeOxy, p<0.02", "value": "statistically higher"}, {"measurement": "sickled fraction with HU therapy", "setting": "sickle RBCs [1]; short-term hypoxia, particularly Densities 3 and 4 (p=0.01 and p=0.001)", "value": "significantly suppressed"}, {"measurement": "delay time of sickling, on-HU group compared with off-HU group", "setting": "sickle RBCs [2]; 5% sickled fraction, p<0.01", "value": "significantly longer"}, {"measurement": "delay time of cell sickling, six cases", "setting": "sickle RBCs [2]; 10% sickled fraction, six cases, suggesting beneficial effect of HU therapy", "value": "> 60", "unit": "s"}, {"measurement": "influence of HU therapy on delay time of cell sickling to saturated sickled fraction", "setting": "sickle RBCs [2]; long-term DeOxy state, p<0.02", "value": "statistically significant"}, {"measurement": "delay time of cell unsickling, on-HU vs off-HU", "setting": "sickle RBCs [2]; long-term DeOxy state, p=0.24", "value": "no significant difference"}, {"measurement": "maximum sickled fraction", "setting": "sickle RBCs [2]; short-term DeOxy state (O2 <5% for 25 s), all on-HU samples, significantly lower than off-HU (p=0.03)", "value": "below 15%"}, {"measurement": "capillary obstruction ratio, on-HU vs off-HU", "setting": "sickle RBCs [3]; 7 on-HU and 7 off-HU patient samples, DeOxy state, p=0.04", "value": "significantly lower"}, {"measurement": "cell velocity, on-HU vs off-HU", "setting": "sickle RBCs [3]; individual RBCs through periodic micro-gates", "value": "lower than those for the off-HU group"}]}, {"molecule": "O=Cc1ccc(CO)o1", "note": "[Aes-103, 5-hydroxymethylfurfural]", "values": [{"measurement": "change in cell sickling from baseline", "setting": "sickle RBCs [4]; 2 mM Aes-103 incubation, each patient sample", "value": "significant decrease in cell sickling from its baseline"}, {"measurement": "maximum sickled fraction", "setting": "sickle RBCs [4]; 5 mM Aes-103, one hour at 37° C., hypoxia 2% O2, 3 on-HU and 3 off-HU patient samples", "value": "< 5", "unit": "%"}, {"measurement": "sickled fraction of one patient sample", "setting": "sickle RBCs [4]; 5 mM Aes-103, one patient sample", "value": "nearly zero"}, {"measurement": "dependence of sickled fraction on Aes-103 concentration (anti-sickling effect)", "setting": "sickle RBCs [4]; Aes-103 0.5-5 mM, long-term hypoxia", "value": "strong correlation with the drug concentration; also recorded: decreased with drug concentration; also recorded: dosage-dependent manner"}]}]}
